# Read-outs that look alike come from different tables or passages of the source.
# Columns and labels:
# [1] = system: Bacillus anthracis; assay: microbe, parasite or virus in culture; format: cell-based; details: J774.A1, 15 h, read-out: Bacillus anthracis ICR (% protection)
# [2] = system: Francisella tularensis; format: cell-based; details: 50 µM
# [3] = cited from earlier work
# [4] = system: Bacillus anthracis; format: cell-based; details: 50 µM
# [5] = system: Bacillus anthracis; parameters: species or system Balb/c mice; details: in vivo
# [6] = system: Coxiella burnetii; assay: microbe, parasite or virus in culture; format: cell-based; details: Vero, 168 h, read-out: Coxiella burnetii ICR (% protection)
# [7] = system: Francisella tularensis; assay: microbe, parasite or virus in culture; format: cell-based; details: J774.A1, 15 h, read-out: Fransciella tularensis ICR (% protection)
# [8] = system: EBOV; assay: microbe, parasite or virus in culture; format: cell-based, Ebola virus; details: Zaire ebolavirus; for EC50: read-out: EC50, EBOV Replication; for EC90: read-out: EC90, EBOV Replication
# [9] = system: EBOV GP-pseudotyped vesicular stomatitis virus; assay: microbe, parasite or virus in culture; format: cell-based, Ebola virus; details: Zaire ebolavirus; for EC50: read-out: EC50, EBOV Entry; for EC90: read-out: EC90, EBOV Entry
# [10] = system: EBOV; format: cell-based, Ebola virus
# [11] = system: LASV; format: cell-based, Lassa virus
# [12] = system: EBOV virus-like particles; format: cell-based, Ebola virus
# [13] = system: MARV; assay: organism not typed; format: cell-based, Marburg virus; details: for EC50: read-out: EC50, MARV Replication; for EC90: read-out: EC90, MARV Replication
# [14] = system: MARV GP-pseudotyped vesicular stomatitis virus; assay: microbe, parasite or virus in culture; format: cell-based, Marburg virus; details: Vesicular stomatitis virus; for EC50: read-out: EC50, MARV Entry; for EC90: read-out: EC90, MARV Entry
# [15] = system: LASV GP-pseudotyped vesicular stomatitis virus; assay: microbe, parasite or virus in culture; format: cell-based, Lassa virus
# [16] = system: EBOV; format: cell-based, Ebola virus; remark: listed apart in the source
# [17] = in vivo; details: male, Balb/c, mouse, ip, 90 mg/kg
# [18] = mouse, in vivo
# [19] = HEK-293T, read-out: EBOV VPEN (% activity)
# [20] = HEK-293T, read-out: MASV VPEN (% activity)
# [21] = Vesicular stomatitis virus, HEK-293T, 50 µM, read-out: LASV VPEN (% activity)
SMILES,inhibition at 50 µM [1],Fransciella tularensis Broth (% protection) [2],Bacillus anthracis Broth (% protection) [4],inhibition of growth at 50 µM [6],inhibition at 50 µM [7],EC50 [8],EC90 [8],EC50 [9],EC90 [9],effect on number of VLPs bound per cell [12],EC50 [13],EC90 [13],EC50 [14],EC90 [14],"inhibition at 50 µM [9, 19]",EBOV VR ([10]; 50 µM),LASV VR ([11]; 50 µM),"inhibition at 50 µM [14, 20]","inhibition at 50 µM [15, 21]",also measured
CCn1cc(C(=O)O)c(=O)c2cc(F)c(N3CCNC(C)C3)c(F)c21 (stereo not drawn) [Lomefloxacin],95%,+,+,100%,98%,,,,,,,,,,,,,,,maximum concentration (Cmax) ([3]; following a 400 mg dose in humans): 2 to 4 µg/mL; bioavailability ([3]; humans): 95–98%; efficacy in preventing mouse death following BA infection (rank) [5]: most efficacious drug
CCN(CC)Cc1cc(Nc2ccnc3cc(Cl)ccc23)ccc1O [Amodiaquine],,,,,,8.4 µM,17 µM,2.6 µM,8 µM,no significant difference in binding,8.3 µM,16 µM,2.3 µM,6.5 µM,,,,,,"inhibition at 10 µM ([9]; HEK-293T, 10 µM, read-out: EBOV VPEN (% activity)): 99%; EBOV VR ([10]; 10 µM): −; LASV VR ([11]; 10 µM): −; inhibition at 10 µM ([14]; HEK-293T, 10 µM, read-out: MASV VPEN (% activity)): 97%; inhibition at 10 µM ([15]; Vesicular stomatitis virus, HEK-293T, 10 µM, read-out: LASV VPEN (% activity)): 51%"
CCN(CC)CCCC(C)Nc1ccnc2cc(Cl)ccc12 (stereo not drawn) [Chloroquine],,,,,,16 µM,25 µM,4.7 µM,43 µM,no significant difference in binding,15 µM,21 µM,5.5 µM,24 µM,97%,+,−,97%,34%,"co-localization of virus particles with EEA1 / LAMP1 [16]: most particles were now associated with EEA1 and very few particles were co-localized with LAMP1; AUC [17]: 23 µg·h/mL; Tmax [17]: 0.5 h; half-life [17]: ~7 h; Cmax ([17]; Cmax): 5.33 µg/mL; Apparent Css ([18]; male, Balb/c): ~ 2.5 μg/ml; apparent steady state concentration ([18]; male, Balb/c): 2,500 ng/mL; time to apparent steady state after initiating treatment ([18]; male, Balb/c): 35 to 40 h; survival of mice on repeat dosing (tolerability) [18]: all mice survived"
CC[C@H]1OC(=O)[C@H](C)[C@@H](O[C@H]2C[C@@](C)(OC)[C@@H](O)[C@H](C)O2)[C@H](C)[C@@H](O[C@@H]2O[C@H](C)C[C@H](N(C)C)[C@H]2O)[C@](C)(O)C[C@@H](C)[C@@H]2N[C@@H](COCCOC)O[C@H]([C@H]2C)[C@]1(C)O [Dirithromycin],92%,+,+,0%,88%,,,,,,,,,,99%,−,−,91%,-11%,protection of mice against BA infection (% of the mice) ([5]; mouse): 20%; LASV VPEN (% activity) ([15]; 50 µM): no activity

# Reference: paper PMC3618516, “A Systematic Screen of FDA-Approved Drugs for Inhibitors of Biological Threat Agents” (PLoS ONE, 2013)
